The source of these data is patent US5021597A, “Novel acrylic acid salts, a process for their preparation, pharmaceutical compositions containing them and their use in the medicine” (Richter Gedeon Vegyeszeti Gyar Rt., priority 1989, dated 1991).

Structures can show the parent of a compound that is named as a salt.

Test [1] relates to gastric injuries induced by acidic alcohol. The test can be described thus: gastric injuries induced by acidic alcohol (cytoprotection). In kind it is in vivo, rat. The following applies: acidic alcohol gastric injury, female rats, pretreatment 30 min; for % Inhibition at a dose of 10 mg/kg p.o.: Table 2. The protocol: (1) Assay of gastric injuries induced by acidic alcohol [A. Robert, Gastroenterology, 77, 761-767 (1979)]
Female rats weighing about 120 to 150 g fasted for 24 hours were used in this test. Test compounds suspended with Tween 80 were given orally to the animals through an intragastric tube. After a certain period (pretreatmenttime) acidic alcohol was given through the intragastric tube at a dose or 0.5 ml per 100 g of body weight. The animals were sacrificed after 1 hour, their stomach was removed and incised along the great curve. The length of the reddish-brown strips (haemorrhagic lesions) was measured and the mean total length per stomach was calculated. The biological activity of the test compounds was given compared to the control group.

A further test has as its system gastric acid secretion. Description: inhibition of gastric acid secretion by using pylorus ligature (Shay). The format is in vivo, Wistar rat. The conditions noted are these: pretreatment 30 min; for % Inhibition in the amount of the acid at a dose of 25 mg/kg p.o.: Table 4, female Wistar rats; for ED50 p.o.: 240 min. On the procedure:
(2) Assay of the inhibition of gastric acid secretion by using pylorus ligature [Shay et al., Gastroenterology, 5, 43-61 (1945)]
Before ligating the pylorus the test compounds suspended with Tween were given orally at a volume of 0.5 ml per […] of body weight to female Wistar rats fasted previously for 20 hours. The animals were sacrificed 4 hours after the operation, and the amount of the acid in the stomach was measured by titration with 0.01N sodium hydroxide solution in the presence of phenolphtalein indicator. The pH value of the content of the stomach was measured by using a pH-meter (Radelkis, Type OP-211/1).

A further test has as its system Campylobacter pylori. The test can be described thus: activity against Campylobacter pylori by agar diffusion and agar dilution assays. The conditions noted are these: Helicobacter pylori, Campylobacter pylori cultures isolated from 5 different ulcerous patients, read-out: MIC (minimal inhibitory concentration). The format is cell-based. On the procedure: The activity of the compounds of the present invention against Campylobacter pylori was investigated by agar diffusion and agar dilution assays. The experiments were carried out with Campylobacter pylori cultures isolated from 5 different ulcerous patients.
A general note: In agar diffusion tests the substance spreads into inoculated agar from a disc or well.

Turning to `O=C(O)/C=C/S(=O)(=O)c1ccccc1` [E, (S)-arginine salt of 3-phenylsulfonyl-2(E)-propenoic acid], the % Inhibition (in general, the relative decrease from the control value, in per cent) at a dose of 10 mg/kg p.o. in test [1] is recorded as 73%. In the test on gastric acid secretion, the “% Inhibition in the amount of the acid at a dose of 25 mg/kg p.o.” value (“% Inhibition in the amount … of 25 mg/kg p.o.” for short) was 56%. For `O=C(O)/C=C/S(=O)(=O)c1ccccc1` [D, bismuth bis [3-phenylsulfonyl-2(E)-propenoate] chloride hexahydrate], the ED50 p.o. in test [1] (Table 1) is given as 3.1 mg/kg; with gastric acid secretion (Table 3, female Wistar rats), 12.0 mg/kg. In addition, the MIC in the test on Campylobacter pylori was in the range of 250 to 1000 µg/mL. As for `O=C(O)/C=C/S(=O)(=O)c1ccccc1` [C, monoethanolamine salt of 3-phenylsulfonyl-2(E)-propenoic acid], the ED50 p.o. in test [1] (Table 1) is given as 3.6 mg/kg; in the test with gastric acid secretion (Table 3, female Wistar rats) it was 11.0 mg/kg. Regarding `O.O.O.O.O=C([O-])/C=C/S(=O)(=O)c1ccccc1.O=C([O-])/C=C/S(=O)(=O)c1ccccc1.[Zn+2]` [H, zinc bis [3-phenylsulfonyl-2(E)-propenoate] tetrahydrate], the ED50 p.o. in test [1] (Table 1) was 3.2 mg/kg; in the test on gastric acid secretion (Table 3, female Wistar rats), 8.0 mg/kg. Consider `O=C(O)/C=C/S(=O)(=O)c1ccccc1` [A, bismuth tris [3-phenylsulfonyl-2(E)-propenoate] pentahydrate], for which the ED50 – broadly, the dose at which the effect has come halfway, by size or by number of responders – was 4 mg/kg in test [1] (Rattus norvegicus, po, Table 1) and 8.6 mg/kg with gastric acid secretion (Rattus norvegicus, po, 4 h, Table 3, female Wistar rats).

For `O=C(O)/C=C/S(=O)(=O)c1ccccc1` [F, (S)-lysine salt of 3-phenylsulfonyl-2(E)-propenoic acid], the ED50 p.o. in test [1] (Table 1) came to 4.1 mg/kg. The “% Inhibition in the amount … of 25 mg/kg p.o.” value in the test on gastric acid secretion stood at 50%. Turning to “zinc bis [phenylthio-2(Z)-propenoate] hydrate”, the “% Inhibition at a dose of 10 mg/kg p.o.” value in test [1] was 61%. As for `O=C(O)/C=C/Sc1ccccc1` [G, bismuth tris [3-phenylthio-2(E)-propenoate] trihydrate], the “% Inhibition in the amount … of 25 mg/kg p.o.” value with gastric acid secretion came to 15%.
